Here are results for one substance from patent US20220257758A1, “METHODS OF ADMINISTERING ANTI-SIGLEC-8 ANTIBODIES AND CORTICOSTEROIDS” (priority 2019, published 2022).

“Also recorded” adds a separate entry of the source.

What all share (assay type): in vivo, human
Data set [1] has as its system eosinophils per HPF observed in GI biopsies. Nature of the data set: Phase 2 study in EG and/or EGE: change in eosinophils per HPF in GI biopsies. An excerpt:
(§1) This study was a randomized, double-blind, placebo-controlled study. […] All patients reported an average weekly score of ≥3 (on a scale from 0-10), recorded for either abdominal pain, diarrhea and/or nausea on a Patient Reported Outcome (PRO) questionnaire during at least 2 out of 3 weeks of PRO collection. A minimum of four questionnaires were completed each qualifying week.
Further, all patients either failed or had disease symptoms not adequately controlled by standard-of-care treatments for EG/EGE symptoms, which could include proton pump inhibitors (PPIs), systemic or topical corticosteroids, and/or diet, among others.
In addition, each patient was confirmed to have EG and/or EGE by esophagogastroduodenoscopy (EGD), as defined by eosinophilia of the gastric mucosa ([…] eosinophils/HPF in 5 HPFs) and/or eosinophilia of the duodenal mucosa (30 eosinophils/HPF in 3 HPFs) from the EGD performed during the screening period, without any other cause for the gastric eosinophilia (e.g., parasitic or other infection or malignancy). For more details, see ClinicalTrials.gov Identifier NCT03496571.
(§2) 65 patients were enrolled in 3 arms. In the first arm, 22 patients received anti-Siglec-8 antibody (non-fucosylated IgG1 antibody HEKA) in the following doses: 0.3 mg/kg for first dose, and 1.0 mg/kg for second, third, and fourth doses (“low dose”). In the second arm, 22 patients received the anti-Siglec-8 antibody in the following doses: 0.3 mg/kg for first dose, 1.0 mg/kg for second dose, and 3.0 mg/kg for the third and fourth doses (“high dose”). Patients in the third arm received placebo. All doses were provided monthly.
The primary endpoint was the percentage of change in eosinophils per HPF observed in GI biopsies before and after receiving treatment or placebo. Mean percent change in eosinophil counts was calculated by comparing count at week 14 of treatment versus baseline count.

For data set [2], the system named is patients with eosinophilic gastritis (EG) and/or eosinophilic gastroenteritis (EGE). Kind of data set: Phase 2 study in EG and/or EGE: Total Symptom Score (TSS) from PRO questionnaire.
Excerpt: as §1, §2
(§3) Secondary endpoints included the percentage of responders to treatment and change in symptoms as reported by PRO questionnaire (both comparing week 13-14 vs. baseline), as well as an exploratory assessment of comorbid eosinophilic esophagitis (EoE). Symptoms reported by the PRO questionnaire included abdominal pain, nausea, diarrhea, vomiting, fullness before finishing a meal, loss of appetite, abdominal cramping, and bloating. Each of the 8 symptoms was measured on a scale from 0 to 10 (with 80 total points possible). This questionnaire captured the most significant symptoms of EG/EGE. Treatment responder was defined as >75% reduction in tissue biopsy eosinophil counts and >30% reduction in Total Symptom Score (TSS) from the PRO questionnaire at weeks 13-14. These endpoints were designed to show (1) tissue eosinophil depletion, (2) symptom improvement, and (3) that these effects occurred in the same individuals.

For data set [3] the test system is unchanged. Kind of data set: Phase 2 study in EG and/or EGE: treatment responders. The protocol: as §2, §3
For data set [4], the system named is patients with eosinophilic esophagitis (EoE). Nature of the data set: Phase 2 study: exploratory assessment of comorbid eosinophilic esophagitis (EoE). The protocol:
as §2
as §3, with “These endpoints were designed to show (1) tissue eosinophil depletion, (2) symptom improvement, and (3) that these effects occurred in the same individuals.” left out

In data set [5] the test system is patients with eosinophilic gastritis (EG) and/or eosinophilic gastroenteritis (EGE). Nature of the data set: Phase 2 study in EG and/or EGE: safety and tolerability.
Excerpt: This Example describes results from a Phase 2 examining treatment of patients with eosinophilic gastritis (EG) and/or eosinophilic gastroenteritis (EGE) using a humanized, non-fucosylated IgG1 monoclonal anti-Siglec-8 antibody (HEKA). Specifically, this study evaluated the safety and tolerability of anti-Siglec-8 antibody in patients with EG and/or EGE.
as §2

The test system is the same in data set [6]. Nature of the data set: Phase 2 open-label extension study: infusion-related reactions with corticosteroid premedication. Conditions: 58 patients to date; 80 mg oral prednisone 12-24 hours prior to first infusion, plus solumedrol, cetirizine, acetaminophen about 1 hour prior; 1 mg/kg first infusion then 3 mg/kg every 4 weeks. The protocol: Approximately 60 patients are enrolled in this extension study, based on the maximum enrollment from a Phase 2 study. Patients who complete the Phase 2 study have the option to receive anti-Siglec-8 antibody in an open-label fashion.
1 mg/kg anti-Siglec-8 antibody (non-fucosylated IgG1 antibody HEKA) is administered for the first infusion, followed by a dose of 3 mg/kg administered every 4 weeks thereafter. Patients receive up to 8 infusions of anti-Siglec-8 antibody administered every 28(±3) days.
Prior to the first infusion of AK002, 80 mg oral prednisone is given 12-24 hours prior to infusions and solumedrol (100 mg IV), cetirizine (10 mg oral), and acetaminophen (975-1000 mg oral) are given about 1 hour prior to infusion.
In this ongoing extension study, corticosteroid has been administered 12-24 hours prior to each of the first anti-Siglec-8 antibody dose (as described above).

Take “anti-Siglec-8 antibody: humanized, non-fucosylated IgG1 monoclonal anti-Siglec-8 antibody (HEKA); VH SEQ ID NO: 6, VL SEQ ID NO: 16; heavy chain SEQ ID NO: 75, light chain SEQ ID NO: 76”: the “patients with gastric and duodenal eosinophil counts of <30/HPF” value in data set [1] (37 out of 39 patients receiving antibody) turned out to be 95%. Further, in data set [1] (both treatment groups, baseline to weeks 13-14, p-value <0.0001), the “mean reduction in eosinophil count” value is given as 95%. Moreover, the “reduction in eosinophil count” value was 97% in data set [1] (high dose arm (0.3, 1.0, 3.0, 3.0 mg/kg monthly), baseline to weeks 13-14) and 95% in data set [1] (low dose arm (0.3, 1.0, 1.0, 1.0 mg/kg monthly), baseline to weeks 13-14). Besides, in data set [2] (8 symptoms, baseline to end of treatment), the “improvement across symptoms of the PRO questionnaire” value is “improvement across all symptoms measured; also recorded: Improvements were observed across all symptoms”. For the same substance, in data set [2] (both treatment groups, baseline to weeks 13-14, p-value 0.0012), the “mean reduction in TSS” value stood at 54%. Also, the “reduction in TSS” value is 58% in data set [2] (high dose arm, baseline to weeks 13-14) and 49% in data set [2] (low dose arm, baseline to weeks 13-14). In data set [2] (on day 1 after the first infusion and maintained throughout the study), the improvements in symptoms entry was “statistically significant improvements in symptoms”. In addition, the percentage of responders in data set [3] (all treated patients, >75% reduction in tissue eosinophils and >30% reduction in TSS at weeks 13-14, p-value 0.0008) was found to be 69%; in data set [3] (high dose arm, weeks 13-14), 70%; in data set [3] (low dose arm, weeks 13-14), 68%. For the same substance, the improvement in dysphagia result in data set [4] (patients with EoE) was “substantial improvement in dysphagia”. Also, the “EoE patients showing <5 eosinophils per HPF” value in data set [4] (week 14 of treatment, 13 of 14 EoE patients) came out at 93%. Further, in data set [5] (Phase 2 study), the “other significant AEs” value is on record as “no other significant adverse events (AEs) were observed”. In addition, the tolerability entry in data set [5] (Phase 2 study) is “generally well tolerated”. The “IRRs that were mild to moderate” value in data set [5] (e.g. flushing, feeling of warmth, headache, nausea, dizziness) turned out to be 95%. Besides, the “patients with at least 1 treatment-emergent adverse event (AE)” value in data set [5] (patients receiving antibody) is given as 91%. In data set [5] (was an IRR, patient recovered within 24 hours with no further sequelae), the “drug-related serious AE (number)” value is “One”. Further, the IRRs observed entry in data set [6] is recorded as “no IRRs have been observed”.
